The source of these data is BindingDB's records for doi:10.7270/Q29Z939R (The Scripps Research Institute Molecular Screening Center, 2009).

This assay addresses T1, Core protein (Hepacivirus C, UniProt Q2Q167).
T1 sequence (Q2Q167 whole entry): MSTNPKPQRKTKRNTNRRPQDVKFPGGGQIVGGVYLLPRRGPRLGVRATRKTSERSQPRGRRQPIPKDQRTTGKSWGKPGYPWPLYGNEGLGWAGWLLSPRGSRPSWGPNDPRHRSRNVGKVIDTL
The assay is described as follows: HCV core protein dimerization inhibitors, dose response, biochemical, TR-FRET (AID 2159). For orientation: In TR-FRET formats the signal depends on donor and acceptor labels being close together.

Structures are written as SMILES.

In turn, `CCOC1=CC(=Cc2c(-c3ccccc3)[nH]n(-c3nc(-c4ccc(Br)cc4)cs3)c2=O)C=CC1=O` displayed a 50% inhibitory concentration (IC50) of over 49.8 µM.

On to `Cc1cc(C)n2c(SCC(=O)C(C#N)c3nc4ccccc4[nH]3)nnc2n1` (configuration not stated) [2-(1,3-dihydrobenzimidazol-2-ylidene)-4-[(5,7-dimethyl-[1,2,4]triazolo[4,3-a]pyrimidin-3-yl)sulfanyl]-3-oxidanylidene-butanenitrile], for which the IC50 is over 49.8 µM.

`Cc1sccc1C1C(C#N)C(=N)SC(=N)C1C#N` (configuration not stated) [2,6-diamino-4-(2-methyl-3-thiophenyl)-4H-thiopyran-3,5-dicarbonitrile] registered a 50% inhibitory concentration (IC50) of over 49.8 µM.

In the case of `Cc1cccc2c1NC(=O)C2=NNc1ccc(S(=O)(=O)Nc2ccc(Cl)cc2)cc1[N+](=O)[O-]` [MLS000393762], the IC50 is over 49.8 µM.

Take `O=C1Nc2ccc([N+](=O)[O-])cc2/C1=N/NC(=O)c1cc(-c2ccccc2Cl)nc2ccccc12` [2-(2-chlorophenyl)-N'-(2-keto-5-nitro-indol-3-yl)cinchoninohydrazide]: the 50% inhibitory concentration (IC50) was over 49.8 µM.

Take `COc1cccc(CN=Nc2ncnc3c2[nH]c2ccc(C)cc23)c1OC` [SMR000439805]: the IC50 was over 49.8 µM.

For the molecule `O=[N+]([O-])c1cc([CH+][N-]n2c(O)csc2=S)ccc1Cl` [3-[(4-chloranyl-3-nitro-phenyl)methylideneamino]-2-sulfanylidene-1,3-thiazolidin-4-one], the IC50 is over 49.8 µM.

The IC50 is the midpoint of a concentration-inhibition curve.
